Test results: publication PMC8402547, “In Vitro and In Vivo Analysis of Ochratoxin A-Derived Glucuronides and Mercapturic Acids as Biomarkers of Exposure” (Toxins, 2021)

Experiments:
[1] = In vitro incubation of OTA with liver S9 in the presence of GSH or NAC; assay type: in vitro ADME, rat; settings: for Time-dependent formation from OTA: rat liver S9, with NADPH regenerating system, GSH or NAC 5 mM, t = 0, 60, 120 min; for Formation from OTA in the absence of the NADPH regenerating system: rat liver S9, no NADPH regenerating system
Procedure: (§1) Liver S9 fractions from rats (Sprague-Dawley, male, 97 donors, 20 mg/mL) and humans (mixed genders, 50 donors, 20 mg/mL) were obtained from XenoTech (Kansas City, USA). S9 fractions from Goettingen® minipigs and rabbits were prepared in-house based on a modified protocol from Hubbard et al. (1985). Rabbit liver (Blue Vienna x German Giant, female) was obtained from ImmonuGlobe (Himmelstadt, Germany), whereas minipig liver (Goettingen® minipig, male, 42.4 kg bw) was obtained from the University Goettingen, Department of Animal Science.
(§2) For analysis of OTA-derived GSH and NAC conjugates, liver S9 fractions (4 mg/mL) of rats, rabbits, minipigs and humans were incubated with OTA (0.1 mM), GSH or NAC (5 mM) and an NADPH regenerating system (NADP (5 mM), glucose-6-phosphate (5 mM), glucose-6-phosphate-dehydrogenase (1.25 units/mL)) in 100 mM phosphate-buffered saline (pH 7.4) in a total volume of 300 µL at 37 °C for two hours. Control incubations were carried out a) in the absence of GSH/NAC and b) in the absence of the NADPH regenerating system. Aliquots (100 µL) were removed immediately (t = 0) as well as after 60 (t = 60) and 120 (t = 120) minutes, and the enzymatic reaction was stopped by addition of 200 µL ACN and centrifugation (20 min, 4 °C, 20,000× g). The supernatants were removed and stored at −80 °C until further analysis.
(§3) LC–MS/MS analyses were performed on an Agilent 1100 series LC coupled to an API 2000/Q-Trap mass spectrometer (Applied Biosystems/MDS Sciex, Concord, Canada). Samples were injected into the LC–MS/MS system through an Agilent 1100 series autosampler. Separations were carried out on a ReproSil-Pur C18 AQ column (2 mm × 150 mm, 5 µm; Dr. Maisch; Ammerbuch, Germany). Gradient elution of OTA-derived metabolites was carried out with water + 0.1% formic acid (solvent A) and acetonitrile (solvent B). Initially, solvent A was held isocratic for 5 min at 100%, followed by a linear gradient to 95% B in 5 min. These conditions were held for further 5 min. Within 1 min, the gradient decreased linearly to 0% B and remained at initial conditions until the end of analysis (30 min). A flow rate of 0.2 mL/min was used. For each run, 10 µL of the respective sample were injected by the autosampler.
(§4) The API 2000/Q-Trap mass spectrometer was operated with a Turbo Ion Spray source in negative ion mode with a voltage of −4000 V. Spectral data were recorded with N2 as the heater gas at 450 °C and as the collision gas (CAD = −2) in multiple reaction monitoring mode (MRM).
(§5) In addition to MRM, constant neutral loss of 129 amu in the negative ion mode based on the characteristic fragmentation pattern of mercapturic acids was used to screen for N-acetyl-cysteine conjugates of OTA. Furthermore, constant neutral loss of 176 amu in positive ion mode based on the fragmentation pattern of glucuronic acid conjugates was used to screen for OTA glucuronides.

[2] = as above; assay type: in vitro ADME, rabbit; settings: for Time-dependent formation from OTA: rabbit liver S9, with NADPH regenerating system, GSH or NAC 5 mM, t = 0, 60, 120 min; for Formation from OTA in the absence of the NADPH regenerating system: rabbit liver S9, no NADPH regenerating system
Procedure: as §1, §2, §3, §4, §5

[3] = as above; assay type: in vitro ADME, minipig; settings: for Time-dependent formation from OTA: minipig liver S9, with NADPH regenerating system, GSH or NAC 5 mM, t = 0, 60, 120 min; for Formation from OTA in the absence of the NADPH regenerating system: minipig liver S9, no NADPH regenerating system
Procedure: as §1, §2, §3, §4, §5

[4] = as above; assay type: in vitro ADME, human; settings: for Time-dependent formation from OTA: human liver S9, with NADPH regenerating system, GSH or NAC 5 mM, t = 0, 60, 120 min
Procedure: as §1, §2, §3, §4, §5

[5] = Direct LC–MS/MS analysis of OTA metabolites in urine of OTA-treated rats; assay type: in vivo, male F344/N rats; settings: OTA up to 2 mg/kg bw, negative ionization mode
Procedure: Archived urine samples from previous repeated dose oral toxicity studies on OTA in male F344/N rats were used. The studies were performed according to national animal welfare regulations after authorization by the local authorities (Regierung von Unterfranken, AZ 621-2531.01-9/98 and AZ 54-2531.01-59/05).
14-day study: Male F344 rats (170–190 g) were purchased from Charles-River Laboratories, Sulzfeld, Germany. Animals had free access to water and standard diet (Altromin) and were kept under standard conditions (12 h day/night cycle, temperature 21–23 °C, humidity 45–55%). Rats were transferred to metabolic cages (Tecniplast Metabolic Cage—Rats Over 300 g; Tecniplast, Italy) for collection of urine 3 days prior to dosing. Animals were administered OTA dissolved in corn oil by oral gavage at 0, 0.25, 0.5, 1.0 and 2.0 mg/kg bw for 2 weeks (5 days per week). Urine was collected every 12 h on day 1 of treatment and every 24 h thereafter on ice, aliquoted and stored at −20 °C until further analysis.
90-day study: Male F344/N rats (6–7 weeks old) were purchased from Harlan-Winkelmann, Borchen, Germany. Animals were housed in groups of 5 in Macrolon type-4 cages and allowed free access to pelleted standard rat maintenance diet (SSNIFF, Soest, Germany) and tap water. After a week of acclimatization, rats (n = 5/dose) were exposed to OTA dissolved in corn oil by oral gavage at doses of 0, 21, 70 or 210 µg/kg bw for 2, 4 or 13 weeks (5 days per week). For urine collection, animals were transferred into metabolic cages (Tecniplast Metabolic Cage—Rats Over 300 g; Tecniplast, Italy) 48 h prior to necropsy and fasted for 20 h but allowed free access to tap water. Urine was collected for 24 h on ice, aliquoted and stored at −20 °C until further analysis.
Urine samples were diluted with acetonitrile (2:1), vortexed and cleared via centrifugation (4 °C, 15 min., 2000× g) to precipitate proteins. Of the resulting supernatant, 10 µL were injected into the LC–MS system and analyzed using the method described below.
as §3, §4, §5

SMILES	Time-dependent formation from OTA [1]	Time-dependent formation from OTA [2]	Time-dependent formation from OTA [3]	Time-dependent formation from OTA [4]	Detection in urine of OTA-treated rats by direct LC–MS/MS (MRM) [5]	Formation from OTA in the absence of the NADPH regenerating system [1]	Formation from OTA in the absence of the NADPH regenerating system [2]	Formation from OTA in the absence of the NADPH regenerating system [3]	Formation from OTA in the absence of the NADPH regenerating system ([4]; human liver S9, no NADPH regenerating system)
C[C@H]1OC(=O)c2c(ccc(C(=O)N[C@@H](Cc3ccccc3)C(=O)O)c2O)[C@H]1O [4-hydroxy-OTB]	not observed	not observed	not observed	not observed	–	–	–	–	–
C[C@@H](O)Cc1c(Cl)cc(C(=O)N[C@@H](Cc2ccccc2)C(=O)O)c(O)c1C(=O)O [OP-OTA]	observed	–	observed	–	traces	not formed	not formed	not formed	not formed
C[C@@H]1Cc2c(SC[C@H](NC(=O)CC[C@H](N)C(=O)O)C(=O)NCC(=O)O)cc(C(=O)N[C@@H](Cc3ccccc3)C(=O)O)c(O)c2C(=O)O1 [OTB-GSH]	not evident	not evident	not evident	not evident	–	–	–	–	–
CC(=O)NC(CSc1cc(C(=O)N[C@@H](Cc2ccccc2)C(=O)O)c(O)c2c1C[C@@H](C)OC2=O)C(=O)O (stereo partly drawn) [OTB-NAC]	not evident	not evident	not evident	not evident	did not confirm the presence	–	–	–	–
C[C@@H]1Cc2ccc(C(=O)N[C@@H](Cc3ccccc3)C(=O)O)c(O)c2C(=O)O1 [OTB]	no time-dependent increase	no time-dependent increase	no time-dependent increase	no time-dependent increase	–	–	–	–	–
C[C@@H]1Cc2c(O)c(SC[C@H](NC(=O)CC[C@H](N)C(=O)O)C(=O)NCC(=O)O)c(C(=O)N[C@@H](Cc3ccccc3)C(=O)O)c(O)c2C(=O)O1 [OTHQ-GSH]	not evident	not evident	not evident	not evident	–	detected	detected	detected	–
CC(=O)NC(CSc1c(O)c2c(c(O)c1C(=O)N[C@@H](Cc1ccccc1)C(=O)O)C(=O)O[C@H](C)C2)C(=O)O (stereo partly drawn) [OTHQ-NAC]	not evident	not evident	not evident	not evident	not detected	–	–	–	–
C[C@@H]1Cc2c(O)cc(C(=O)N[C@@H](Cc3ccccc3)C(=O)O)c(O)c2C(=O)O1 [OTHQ]	not observed	not observed	not observed	not observed	not detected	–	–	–	–
C[C@@H]1Cc2c(Cl)cc(C(=O)O)c(O)c2C(=O)O1 [OTalpha]	–	–	–	–	consistently found	–	–	–	–
